Columns and labels:
recombinant NL4-3 virus = test: HIV cell culture assay (antiviral activity, luciferase readout); assay type: cell-based; details: Human immunodeficiency virus 1, NL43, MT2, MT-2 cells infected for 4-5 days with recombinant NL4-3 virus carrying Renilla luciferase
Method in brief: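 MT-2 cells infected for 4-5 days with NL4-3 reference virus carrying Renilla luciferase in place of part of nef, in presence of serial compound dilutions. Luciferase read with live-cell substrate; EC50 from median effect equation fit.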

[1] = Compound cytotoxicity, XTT-based colorimetric assay; assay type: cell-based; details: human; uninfected MT2 cells, day 4, XTT assay
Method in brief: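 Run under the antiviral-assay protocol but without virus. Viability was read on day 4 and CC50 values were derived from the readout.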

Compound | EC50 (recombinant NL4-3 virus) [nM] | CC50 at 4 day [1] [nM]
CC(C)Cn1nccc1-c1ccc2c(=O)n(-c3ccc(Cl)c4c(NS(C)(=O)=O)nn(C)c34)c([C@H](Cc3cc(F)cc(F)c3)NC(=O)Cn3nc(C(F)F)c4c3C(F)(F)[C@@H]3C[C@H]43)nc2n1 (atropisomer, axis not shown; (P)) [Example 69, N-((S)-1-((3P)-3-(4-chloro-1-methyl-3-(methylsulfonamido)-1H-indazol-7-yl)-7-(1-isobutyl-1H-pyrazol-5-yl)-4-oxo-3,4-dihydropyrido[2,3-d]pyrimidin-2-yl)-2-(3,5-difluorophenyl)ethyl)-2-((3bS,4aR)-3-(difluoromethyl)-5,5-difluoro-3b,4,4a,5-tetrahydro-1H-cyclopropa[3,4]cyclopenta[1,2-c]pyrazol-1-yl)acetamide] | 0.099 | > 100
Cn1nccc1-c1ccc2c(=O)n(-c3ccc(Cl)c4c(NS(C)(=O)=O)nn(C)c34)c([C@H](Cc3cc(F)cc(F)c3)NC(=O)Cn3nc(C(F)F)c4c3C(F)(F)[C@@H]3C[C@H]43)nc2n1 (atropisomer, axis not shown; (P)) [Example 68, N-((S)-1-((3P)-3-(4-chloro-1-methyl-3-(methylsulfonamido)-1H-indazol-7-yl)-7-(1-methyl-1H-pyrazol-5-yl)-4-oxo-3,4-dihydropyrido[2,3-d]pyrimidin-2-yl)-2-(3,5-difluorophenyl)ethyl)-2-((3bS,4aR)-3-(difluoromethyl)-5,5-difluoro-3b,4,4a,5-tetrahydro-1H-cyclopropa[3,4]cyclopenta[1,2-c]pyrazol-1-yl)acetamide] | 0.049 | > 100
Cn1nc(NS(C)(=O)=O)c2c(Cl)ccc(-n3c([C@H](Cc4cc(F)cc(F)c4)NC(=O)Cn4nc(C(F)F)c5c4C(F)(F)[C@@H]4C[C@H]54)nc4nc(-c5ccnn5CC5CC5)ccc4c3=O)c21 (atropisomer, axis not shown; (P)) [Example 78, N-((S)-1-((3P)-3-(4-chloro-1-methyl-3-(methylsulfonamido)-1H-indazol-7-yl)-7-(1-(cyclopropylmethyl)-1H-pyrazol-5-yl)-4-oxo-3,4-dihydropyrido[2,3-d]pyrimidin-2-yl)-2-(3,5-difluorophenyl)ethyl)-2-((3bS,4aR)-3-(difluoromethyl)-5,5-difluoro-3b,4,4a,5-tetrahydro-1H-cyclopropa[3,4]cyclopenta[1,2-c]pyrazol-1-yl)acetamide] | 0.09 | > 100
Cn1nc(NS(C)(=O)=O)c2c(Cl)ccc(-n3c([C@H](Cc4cc(F)cc(F)c4)NC(=O)Cn4nc(C(F)F)c5c4C(F)(F)[C@@H]4C[C@H]54)nc4nc(-c5ccn(CC(F)(F)C(F)(F)F)n5)ccc4c3=O)c21 (atropisomer, axis not shown; (P)) [Example 88, N-((S)-1-((3P)-3-(4-chloro-1-methyl-3-(methylsulfonamido)-1H-indazol-7-yl)-4-oxo-7-(1-(2,2,3,3,3-pentafluoropropyl)-1H-pyrazol-3-yl)-3,4-dihydropyrido[2,3-d]pyrimidin-2-yl)-2-(3,5-difluorophenyl)ethyl)-2-((3bS,4aR)-3-(difluoromethyl)-5,5-difluoro-3b,4,4a,5-tetrahydro-1H-cyclopropa[3,4]cyclopenta[1,2-c]pyrazol-1-yl)acetamide] | 0.079 | > 100
Cn1nc(NS(C)(=O)=O)c2c(Cl)ccc(-n3c([C@H](Cc4cc(F)cc(F)c4)NC(=O)Cn4nc(C(F)F)c5c4C(F)(F)[C@@H]4C[C@H]54)nc4nc(-c5ccn(CCC(F)(F)F)n5)ccc4c3=O)c21 (atropisomer, axis not shown; (P)) [Example 89, N-((S)-1-((3P)-3-(4-chloro-1-methyl-3-(methylsulfonamido)-1H-indazol-7-yl)-4-oxo-7-(1-(3,3,3-trifluoropropyl)-1H-pyrazol-3-yl)-3,4-dihydropyrido[2,3-d]pyrimidin-2-yl)-2-(3,5-difluorophenyl)ethyl)-2-((3bS,4aR)-3-(difluoromethyl)-5,5-difluoro-3b,4,4a,5-tetrahydro-1H-cyclopropa[3,4]cyclopenta[1,2-c]pyrazol-1-yl)acetamide] | 0.056 | > 100
Cn1nc(NS(C)(=O)=O)c2c(Cl)ccc(-n3c([C@H](Cc4cc(F)cc(F)c4)NC(=O)Cn4nc(C(F)F)c5c4C(F)(F)[C@@H]4C[C@H]54)nc4nc(-c5cccc(Cl)n5)ccc4c3=O)c21 (atropisomer, axis not shown; (P)) [Example 50, N-((S)-1-((3P)-3-(4-chloro-1-methyl-3-(methylsulfonamido)-1H -indazol-7-yl)-7-(6-chloropyridin-2-yl)-4-oxo-3,4-dihydropyrido[2,3-d]pyrimidin-2-yl)-2-(3,5-difluorophenyl)ethyl)-2-((3bS,4aR)-3-(difluoromethyl)-5,5-difluoro-3b,4,4a,5-tetrahydro-1H-cyclopropa[3,4]cyclopenta[1,2-c]pyrazol-1-yl)acetamide] | 0.056 | > 100
Cn1nc(NS(C)(=O)=O)c2c(Cl)ccc(-n3c([C@H](Cc4cc(F)cc(F)c4)NC(=O)Cn4nc(C(F)F)c5c4C(F)(F)[C@@H]4C[C@H]54)nc4nc(-c5ccccn5)ccc4c3=O)c21 (atropisomer, axis not shown; (P)) [Example 60, N-((S)-1-((3P)-3-(4-chloro-1-methyl-3-(methylsulfonamido)-1H-indazol-7-yl)-4-oxo-7-(pyridin-2-yl)-3,4-dihydropyrido[2,3-d]pyrimidin-2-yl)-2-(3,5-difluorophenyl)ethyl)-2-((3bS,4aR)-3-(difluoromethyl)-5,5-difluoro-3b,4,4a,5-tetrahydro-1H-cyclopropa[3,4]cyclopenta[1,2-c]pyrazol-1-yl)acetamide] | 0.032 | > 100
Cn1nc(NS(C)(=O)=O)c2c(Cl)ccc(-n3c([C@H](Cc4cc(F)cc(F)c4)NC(=O)Cn4nc(C(F)F)c5c4C(F)(F)[C@@H]4C[C@H]54)nc4nc(-c5cccc(C(C)(F)F)n5)ccc4c3=O)c21 (atropisomer, axis not shown; (P)) [Example 12, N-((S)-1-((3P)-3-(4-chloro-1-methyl-3-(methylsulfonamido)-1H-indazol-7-yl)-7-(6-(1,1-difluoroethyl)pyridin-2-yl)-4-oxo-3,4-dihydropyrido[2,3-d]pyrimidin-2-yl)-2-(3,5-difluorophenyl)ethyl)-2-((3bS,4aR)-3-(difluoromethyl)-5,5-difluoro-3b,4,4a,5-tetrahydro-1H-cyclopropa[3,4]cyclopenta[1,2-c]pyrazol-1-yl)acetamide] | 0.06 | > 100
Cn1nc(NS(C)(=O)=O)c2c(Cl)ccc(-n3c([C@H](Cc4cc(F)cc(F)c4)NC(=O)Cn4nc(C(F)F)c5c4C(F)(F)[C@@H]4C[C@H]54)nc4nc(-c5ccncc5)ccc4c3=O)c21 (atropisomer, axis not shown; (P)) [Example 34, N-((S)-1-((3P)-3-(4-chloro-1-methyl-3-(methylsulfonamido)-1H-indazol-7-yl)-4-oxo-7-(pyridin-4-yl)-3,4-dihydropyrido[2,3-d]pyrimidin-2-yl)-2-(3,5-difluorophenyl)ethyl)-2-((3bS,4aR)-3-(difluoromethyl)-5,5-difluoro-3b,4,4a,5-tetrahydro-1H-cyclopropa[3,4]cyclopenta[1,2-c]pyrazol-1-yl)acetamide] | 0.07 | > 100
Cn1nc(NS(C)(=O)=O)c2c(Cl)ccc(-n3c([C@H](Cc4cc(F)cc(F)c4)NC(=O)Cn4nc(C(F)F)c5c4C(F)(F)[C@@H]4C[C@H]54)nc4nc(-n5cnc(C(F)(F)F)n5)ccc4c3=O)c21 (atropisomer, axis not shown; (P)) [Example 80, N-((S)-1-((3P)-3-(4-chloro-1-methyl-3-(methylsulfonamido)-1H-indazol-7-yl)-4-oxo-7-(3-(trifluoromethyl)-1H-1,2,4-triazol-1-yl)-3,4-dihydropyrido[2,3-d]pyrimidin-2-yl)-2-(3,5-difluorophenyl)ethyl)-2-((3bS,4aR)-3-(difluoromethyl)-5,5-difluoro-3b,4,4a,5-tetrahydro-1H-cyclopropa[3,4]cyclopenta[1,2-c]pyrazol-1-yl)acetamide] | 0.028 | > 100
CCC(F)(F)Cn1ccc(-c2ccc3c(=O)n(-c4ccc(Cl)c5c(NS(C)(=O)=O)nn(C)c45)c([C@H](Cc4cc(F)cc(F)c4)NC(=O)Cn4nc(C(F)F)c5c4C(F)(F)[C@@H]4C[C@H]54)nc3n2)n1 (atropisomer, axis not shown; (P)) [Example 86, N-((S)-1-((3P)-3-(4-chloro-1-methyl-3-(methylsulfonamido)-1H-indazol-7-yl)-7-(1-(2,2-difluorobutyl)-1H-pyrazol-3-yl)-4-oxo-3,4-dihydropyrido[2,3-d]pyrimidin-2-yl)-2-(3,5-difluorophenyl)ethyl)-2-((3bS,4aR)-3-(difluoromethyl)-5,5-difluoro-3b,4,4a,5-tetrahydro-1H-cyclopropa[3,4]cyclopenta[1,2-c]pyrazol-1-yl)acetamide] | 0.084 | > 100
Cc1cc(-c2ccc3c(=O)n(-c4ccc(Cl)c5c(NS(C)(=O)=O)nn(C)c45)c([C@H](Cc4cc(F)cc(F)c4)NC(=O)Cn4nc(C(F)F)c5c4C(F)(F)[C@@H]4C[C@H]54)nc3n2)ccn1 (atropisomer, axis not shown; (P)) [Example 48, N-((S)-1-((3P)-3-(4-chloro-1-methyl-3-(methylsulfonamido)-1H-indazol-7-yl)-7-(2-methylpyridin-4-yl)-4-oxo-3,4-dihydropyrido[2,3-d]pyrimidin-2-yl)-2-(3,5-difluorophenyl)ethyl)-2-((3bS,4aR)-3-(difluoromethyl)-5,5-difluoro-3b,4,4a,5-tetrahydro-1H-cyclopropa[3,4]cyclopenta[1,2-c]pyrazol-1-yl)acetamide] | 0.053 | > 100

Source: patent US20220389007A1, “INHIBITORS OF HUMAN IMMUNODEFICIENCY VIRUS REPLICATION” (VIIV HEALTHCARE UK (No. 5) LIMITED, priority 2019, published 2022)
